# Laboratory results reported in patent publication US20230257385A1, “SALT AND SOLID FORMS OF TABERNANTHALOG” (priority 2021, published 2023).
# What was measured:
# [1] = format: physicochemical; conditions: salt screen, Experiment 2
# Protocol: Tabernanthalog (native) (50 mg, 1 wt) was charged to a solution of the relevant counter ion (1.0 mol equivalence of counter ion) in ethanol (5.0 vol, 250 μl). The mixtures were warmed to 85° C. and small aliquots of water were added until dissolution occurred (Table 212 for additional charges of solvent). The solutions were cooled and allowed to stand undisturbed under sub-ambient conditions overnight (Table 211). […] Products were isolated via centrifugation. The corresponding pellets were sub-sampled and analyzed wet by XRPD; after which, they were dried at 40° C. under reduced pressure over 20 h and reanalyzed by XRPD. […] Once the crystallization experiments were completed, salt formation was confirmed by ^1H NMR, XRPD, DSC and TGA.
# [2] = DVS analyses of sorbate salt Form A / Form C (Example 10); format: physicochemical; conditions: 0% to 90% to 0% RH
# Source text: DVS analyses of Form A (Performed on batch reference: Experiment 11-Sample -A1) To determine whether Form A underwent form change at high % RH, DVS residues of Form A, from 0 to 80% RH and 0 to 90% RH, were examined. The specimens were equilibrated to constant mass, at 80% and 90% RH set-points, removed, placed in a capped vial, and analysed by XRPD and DSC. Based on the SC-XRD at 100 K, no regular voids in the crystal structure were large enough to accommodate non-crystal-bonded, molecular water with minimum probe radius of 1.4 Å.
# The moisture sorption properties of the feed API were analysed by DVS Intrinsic instrument (Surface Measurement System). Approximately 20 to 50 mg of API was weighed onto an aluminium pan and loaded into the instrument equilibrated at 25° C. The sample was equilibrated under a dry atmosphere (0% relative humidity) for 60 minutes, before increasing the humidity from 0% to 30% at 5% step increment and from 30% to 90% at 10% step increment. A desorption cycle was also applied from 90% to 30% (10% step decrement) and from 30% to 0% (5% step decrement). A rate of change in mass per time unit (dm/dt) of 0.002%/min was set as the equilibrium parameter. Kinetic and isotherm graphs were calculated.
# 5. DVS Analyses: 0% to 90% DVS Mass Per Unit Time Equilibrated at Dm/Dt (0.0002%/Min)
# [3] = Equilibrium humidity evaluation 75% RH/40° C., 10 days (Example 8, Experiment 6); format: physicochemical; conditions: Fumarate salt, t = 5 d at 75% RH at 40° C.
# Protocol: The experimental procedure that accompany this experiment is provided in Section G.ii.
# All forms were maintained under constant equilibrium humidity (75% RH). XRPD, DSC, TGA, PLM and ^1H NMR analyses were performed on the absorbents at t=5 d and t=10 d, to confirm their physical fates and to determine the extent of residual solvent exchange or sequestration.
# 100 mg portions of Tabernanthalog salts ([…]) were placed in the relevant open vials. The powders were finely divided and distributed evenly over the base of the vial, such that equal material coverage across the panel was observed. These samples were then maintained 40° C. under 75% RH. The samples were sub-sampled at intervals of 5 and 10 days and analyzed by ^1H NMR, HPLC, XRPD, DSC, TGA and PLM, for evidence of phase change or chemical degradation.
# [4] = Solubility determinations in SIF buffers FaSSIF, FeSSIF, FaSSGF (Example 8, Experiment 5)
# Protocol: The temperature was maintained at 37° C. for 24 h. […] The suspensions were sampled at the relevant time points and centrifuged. The centrifuged pellets, obtained at the time points were analysed by XRPD as a wet pellet and dried, for evidence of form change.
# The temperature was maintained at 37° C. for 24 h.
# The suspension was sampled at the relevant time points and centrifuged. […] The centrifuged pellets, obtained at the time points were analyzed by XRPD as a wet pellet and dried, for evidence of form change.
# [5] = input batch 3-B1, before SIF buffer
smiles,measurement,setting,value
COc1ccc2c3c([nH]c2c1)CCN(C)CC3.O=S(=O)(O)CCS(=O)(=O)O [Tabernanthalog · Edisylate],Unique XRPD?,[1],Disordered
C/C=C/C=C/C(=O)O.COc1ccc2c3c([nH]c2c1)CCN(C)CC3.O [Form C (Pattern #2)],form change during DVS,[2],reverted to Form A on the desorption cycle
COc1ccc2c3c([nH]c2c1)CCN(C)CC3.O=C(O)CC(O)(CC(=O)O)C(=O)O [Tabernanthalog · Citrate],Unique XRPD?,[1],v. Disordered
COc1ccc2c3c([nH]c2c1)CCN(C)CC3.O=P(O)(O)O [Tabernanthalog · Phosphate],Discrete melt (DSC)?,[1],✓
same,Flat baseline (DSC)?,[1],✓
same,Unique XRPD?,[1],Disordered
COc1ccc2c3c([nH]c2c1)CCN(C)CC3.Cc1ccc(S(=O)(=O)O)cc1 [Tabernanthalog · Tosylate],Discrete melt (DSC)?,[1],✓
same,Flat baseline (DSC)?,[1],✓
same,Flat baseline pre-melt (TGA)?,[1],✓
same,Unique XRPD?,[1],✓
COc1ccc2c3c([nH]c2c1)CCN(C)CC3.O=C(O)/C=C/C(=O)O [Sample 6-A1],"Tabernanthalog RRT = 1.00 (trended HPLC data, chemical purity)",[3],99.12
COc1ccc2c3c([nH]c2c1)CCN(C)CC3.O=C(O)c1ccccc1 [Tabernanthalog · Benzoate],Discrete melt (DSC)?,[1],✓
same,Flat baseline (DSC)?,[1],✓
same,Flat baseline pre-melt (TGA)?,[1],✓
same,Unique XRPD?,[1],✓
same,"Trended HPLC data, Tabernanthalog (RRT 1.00)",[4]; [5],99.23 % area
same,"Trended HPLC data, peak at RRT 0.86",[4]; [5],0.02 % area
same,"Trended HPLC data, peak at RRT 0.89",[4]; [5],0.04 % area
same,"Trended HPLC data, peak at RRT 0.93",[4]; [5],0.61 % area
same,"Trended HPLC data, peak at RRT 1.09",[4]; [5],0.08 % area
same,"Trended HPLC data, peak at RRT 1.11",[4]; [5],0.02 % area
same,"Trended HPLC data, Tabernanthalog (RRT 1.00)",[4]; t = 1 h in FaSSGF,99.33 % area
same,"Trended HPLC data, peak at RRT 0.93",[4]; t = 1 h in FaSSGF,0.55 % area
same,"Trended HPLC data, peak at RRT 1.09",[4]; t = 1 h in FaSSGF,0.07 % area
same,"Trended HPLC data, peak at RRT 1.10",[4]; t = 1 h in FaSSGF,0.02 % area
same,"Trended HPLC data, peak at RRT 1.11",[4]; t = 1 h in FaSSGF,0.03 % area
same,"Trended HPLC data, Tabernanthalog (RRT 1.00)",[4]; t = 1 h in FaSSIF,98.67 % area
same,"Trended HPLC data, peak at RRT 0.93",[4]; t = 1 h in FaSSIF,0.92 % area
same,"Trended HPLC data, peak at RRT 1.08",[4]; t = 1 h in FaSSIF,0.13 % area
same,"Trended HPLC data, peak at RRT 1.11",[4]; t = 1 h in FaSSIF,0.28 % area
same,"Trended HPLC data, Tabernanthalog (RRT 1.00)",[4]; t = 1 h in FeSSIF,99.05 % area
same,"Trended HPLC data, peak at RRT 0.93",[4]; t = 1 h in FeSSIF,0.84 % area
same,"Trended HPLC data, peak at RRT 1.08",[4]; t = 1 h in FeSSIF,0.11 % area
same,"Trended HPLC data, Tabernanthalog (RRT 1.00)",[4]; t = 3 h in FaSSGF,99.34 % area
same,"Trended HPLC data, peak at RRT 0.93",[4]; t = 3 h in FaSSGF,0.58 % area
same,"Trended HPLC data, peak at RRT 1.09",[4]; t = 3 h in FaSSGF,0.07 % area
same,"Trended HPLC data, Tabernanthalog (RRT 1.00)",[4]; t = 3 h in FaSSIF,98.77 % area
same,"Trended HPLC data, peak at RRT 0.93",[4]; t = 3 h in FaSSIF,1.04 % area
same,"Trended HPLC data, peak at RRT 1.08",[4]; t = 3 h in FaSSIF,0.20 % area
same,"Trended HPLC data, Tabernanthalog (RRT 1.00)",[4]; t = 3 h in FeSSIF,99.03 % area
same,"Trended HPLC data, peak at RRT 0.93",[4]; t = 3 h in FeSSIF,0.81 % area
same,"Trended HPLC data, peak at RRT 1.08",[4]; t = 3 h in FeSSIF,0.10 % area
same,"Trended HPLC data, peak at RRT 1.11",[4]; t = 3 h in FeSSIF,0.06 % area
same,"Trended HPLC data, Tabernanthalog (RRT 1.00)",[4]; t = 6 h in FaSSGF,99.33 % area
same,"Trended HPLC data, peak at RRT 0.93",[4]; t = 6 h in FaSSGF,0.59 % area
same,"Trended HPLC data, peak at RRT 1.09",[4]; t = 6 h in FaSSGF,0.08 % area
same,"Trended HPLC data, Tabernanthalog (RRT 1.00)",[4]; t = 6 h in FaSSIF,98.58 % area
same,"Trended HPLC data, peak at RRT 0.93",[4]; t = 6 h in FaSSIF,1.26 % area
same,"Trended HPLC data, peak at RRT 1.08",[4]; t = 6 h in FaSSIF,0.16 % area
same,"Trended HPLC data, Tabernanthalog (RRT 1.00)",[4]; t = 6 h in FeSSIF,98.69 % area
same,"Trended HPLC data, peak at RRT 0.93",[4]; t = 6 h in FeSSIF,1.00 % area
same,"Trended HPLC data, peak at RRT 1.08",[4]; t = 6 h in FeSSIF,0.15 % area
same,"Trended HPLC data, peak at RRT 1.10",[4]; t = 6 h in FeSSIF,0.07 % area
same,"Trended HPLC data, peak at RRT 1.11",[4]; t = 6 h in FeSSIF,0.09 % area
same,"Trended HPLC data, Tabernanthalog (RRT 1.00)",[4]; t = 24 h in FaSSGF,99.29 % area
same,"Trended HPLC data, peak at RRT 0.93",[4]; t = 24 h in FaSSGF,0.63 % area
same,"Trended HPLC data, peak at RRT 1.09",[4]; t = 24 h in FaSSGF,0.08 % area
same,"Trended HPLC data, Tabernanthalog (RRT 1.00)",[4]; t = 24 h in FaSSIF,98.01 % area
same,"Trended HPLC data, peak at RRT 0.93",[4]; t = 24 h in FaSSIF,1.51 % area
same,"Trended HPLC data, peak at RRT 1.08",[4]; t = 24 h in FaSSIF,0.24 % area
same,"Trended HPLC data, peak at RRT 1.10",[4]; t = 24 h in FaSSIF,0.11 % area
same,"Trended HPLC data, peak at RRT 1.11",[4]; t = 24 h in FaSSIF,0.13 % area
same,"Trended HPLC data, Tabernanthalog (RRT 1.00)",[4]; t = 24 h in FeSSIF,98.17 % area
same,"Trended HPLC data, peak at RRT 0.89",[4]; t = 24 h in FeSSIF,0.15 % area
same,"Trended HPLC data, peak at RRT 0.93",[4]; t = 24 h in FeSSIF,1.36 % area
same,"Trended HPLC data, peak at RRT 1.08",[4]; t = 24 h in FeSSIF,0.19 % area
same,"Trended HPLC data, peak at RRT 1.10",[4]; t = 24 h in FeSSIF,0.13 % area
COc1ccc2c3c([nH]c2c1)CCN(C)CC3.O=S(=O)(O)O [Tabernanthalog · Sulfate],Unique XRPD?,[1],Amorphous
COc1ccc2c3c([nH]c2c1)CCN(C)CC3.O=C(O)C[C@H](O)C(=O)O [Tabernanthalog · Malate],Discrete melt (DSC)?,[1],✓
same,Flat baseline (DSC)?,[1],✓
same,Flat baseline pre-melt (TGA)?,[1],✓
same,Unique XRPD?,[1],✓
COc1ccc2c3c([nH]c2c1)CCN(C)CC3.O=C(O)C=CC(=O)O [Tabernanthalog · Maleate],Unique XRPD?,[1],Disordered
